In patent EP0643712B1, “SPIRO-OXETANES, PROCESS FOR PREPARING THE SAME AND MEDICAMENTS” (BOEHRINGER MANNHEIM GMBH, priority 1992, dated 1993):

Experiments:
[1] = test system: humanen Thrombozyten; assay: Inhibition of collagen-induced arachidonic acid (3H-AA) release from platelets; type: cell-based; conditions: Homo sapiens, Platelet, read-out: AA in % (Hemmung der Collagen induzierten Arachidonsäurefreisetzung)
Source text: Als weiterer Indikator einer PLA2-Inhibition gilt eine Hemmung der AA-Freisetzung aus Thrombozyten. Zu diesem Zweck werden die Thrombozyten mit ^3H-AA inkubiert. Diese zugegebene radioaktive Arachidonsäure baut sich in Membranphospholipide ein. Anschließend wird die thrombozytäre PLA2 über den Collagenrezeptor aktiviert und ^3H-AA so aus Phospholipen wieder ins Medium freigesetzt, wo sie quantifiziert werden kann.

[2] = molecular target: T1, humane rekombinante Typ II PLA2 (Homo sapiens, UniProt P14555); assay: In-vitro inhibition of PLA2 enzyme activity; type: biochemical; conditions: for inhibition at 1 µg/mL / inhibition at 10 µg/mL / inhibition at 100 µg/mL: read-out: PLA2 in % (Hemmung der Enzymaktivität); for PLA2 in % (Hemmung der Enzymaktivität) / inhibition at 100 µg/mL: 100 µg/ml
T1 sequence (P14555 21-144): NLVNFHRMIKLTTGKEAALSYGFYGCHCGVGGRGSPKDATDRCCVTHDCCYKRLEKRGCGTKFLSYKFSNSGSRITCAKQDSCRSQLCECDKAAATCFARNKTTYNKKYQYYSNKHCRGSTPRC
Source text: Als typischer Vertreter einer PLA2 wurde die humane rekombinante Typ-II-PLA2 (= synoviale PLA2) zur Testung eingesetzt.
Die Tabelle 1 enthält die prozentuale in-vitro Hemmung dieses Enzyms durch die Verbindung des Beispiels 1, einen Spiro-Oxetan-Vertreter. Das Enzym wird dosisabhängig bis zu 93 % inhibiert.

SMILES | inhibition at 1 µg/mL [1] | inhibition at 10 µg/mL [1] | inhibition at 100 µg/mL [1] | inhibition at 1 µg/mL [2] | inhibition at 10 µg/mL [2] | PLA2 in % (Hemmung der Enzymaktivität) [2] | inhibition at 100 µg/mL [2]
O=C1C=CC2(C=C1)CC1(CCC(=O)O1)O2 (centres unmarked) [Bsp. 1, 1,6-Dioxadispiro[4.1.5.1]trideca-8,11-dien-2,10-dion] | 42% | 86% | 100% | 11% | 37% | 93% | ≤ 93%
COc1ccc2c(c1)c(CC(=O)O)c(C)n2C(=O)c1ccc(Cl)cc1 [Indomethacin] | 6% | 18% | 23% | 0% | 10% | 52% | 52%
